In PubChem BioAssay AID449764 (Southern Research Specialized Biocontainment Screening …, 2010):

System: Mycobacterium tuberculosis H37Rv growth inhibition, no glycerol
Assay: Confirmatory growth inhibition assay, Mycobacterium tuberculosis H37Rv, absence of glycerol (AID 449764);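 further: growth read after 7 days of incubation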
Settings: for IC90: measured here: IC90 growth inhibition

For `O=C(c1cc2cc(Cl)ccc2[nH]1)N1CCN(Cc2ccc3c(c2)OCO3)CC1`, the IC50 was 24.2 µM and the IC90 was > 25 µM.
For `CCN(CC)Cc1nc2c(c(=O)[nH]1)C(CC)(CC)Cc1ccccc1-2`, the IC50 was 12.7 µM and the IC90 was 21.1 µM.
`C[C@]12CC[C@@H]3c4ccc(O)cc4CC[C@H]3[C@@H]1CC[C@@H]2OC(=O)CCC1CCCC1` showed an IC50 of 14.5 µM and an IC90 of 35.3 µM.
With `COc1ccc(C(=O)COC(=O)[C@H](C)Nc2ccc(C(F)(F)F)cc2[N+](=O)[O-])cc1` the IC50 was 18.1 µM and the IC90 was > 25 µM.
`O=C1c2ccccc2S(=O)(=O)c2cc(C(=O)N3CCN(c4c(Cl)cncc4Cl)CC3)ccc21` gave an IC50 of 34.8 µM and an IC90 of 52.2 µM.
With `CCCCOCCCn1c(-c2ccco2)nc2nc3ccccc3nc21` the IC50 was 99.9 µM and the IC90 was > 100 µM.
`Cc1ccc(NC(=O)COC(=O)CCc2c[nH]c3ccccc23)cc1[N+](=O)[O-]` was tested, and the IC50 was 2.29 µM and the IC90 was 6.16 µM.
`CCOC(=O)C1=C(C)Nc2nc(SCC(=O)OC)nn2C1c1cc(F)cc(F)c1` (stereo unspecified) showed an IC50 of 9.99 µM and an IC90 of 12.5 µM.
For `CC1(C)Cc2c(sc(NC(=O)c3ccc(C(=O)c4ccccc4)cc3)c2C(N)=O)C(C)(C)N1`, the IC50 was 22.9 µM and the IC90 was > 50 µM.
`C/C(=N\NC(=O)c1nnn(-c2nonc2N)c1CN(C)c1ccccc1)c1ccccn1` was tested, and the IC50 was 11.9 µM and the IC90 was 13.6 µM.
In the case of `COc1ccccc1N1CCN(CCCCOc2cccc3ccccc23)CC1`, the IC50 is reported as 33 µM and the IC90 is reported as 43.5 µM.
In the case of `CCCCn1nc(C(=O)N[C@@H](CCSC)c2nc3ccccc3[nH]2)c2ccccc2c1=O`, the IC50 is reported as 46.9 µM and the IC90 is reported as > 100 µM.
For `Cc1ccc2c(c1)C1C[N+](C)(CC(=O)c3ccc(Cl)cc3Cl)CCC1N2C(=O)c1ccc(F)cc1` (stereo unspecified), the IC50 was 32.2 µM and the IC90 was 41 µM.
With `Cc1ccc(C(=O)N/C(=C/c2ccco2)C(=O)OCN2C(=O)c3ccccc3C2=O)cc1` the IC50 was 16.3 µM and the IC90 was 40.4 µM.
Compound `CCOc1ccc(/C=N/Nc2ccc(Cl)nn2)c(O)c1` has an IC50 of 5.87 µM and an IC90 of 6.71 µM.
`Cc1ccc(C2(c3ccc(C)cc3)CC2C(=O)Nc2ccc([N+](=O)[O-])cc2O)cc1` (stereo unspecified) was tested, and the IC50 was 18.8 µM and the IC90 was 23.6 µM.
`CC1(C)Cc2ccccc2C2=NNC(=O)C2=N1` was tested, and the IC50 was 11.2 µM and the IC90 was 15.1 µM.
`CCOC(=O)CNC(=S)n1cnc(N)n1` was tested, and the IC50 was 45.8 µM and the IC90 was > 100 µM.
For `CCCOP(=O)(OCCC)c1c([N+](=O)[O-])cc(C(F)(F)F)cc1[N+](=O)[O-]`, the IC50 was 5.5 µM and the IC90 was 7.7 µM.
With `O=c1oc2ccccc2c2c1nc(C(F)(F)F)n2-c1ccccc1` the IC50 was 13.9 µM and the IC90 was 23.8 µM.
For `CCOC(=O)c1cnc(-n2nc(C)cc2C)nc1NNc1cc(C)nc(-c2ccccc2)n1`, the IC50 was 74.6 µM and the IC90 was 93.7 µM.
With `COC(=O)CN1C(c2ccc(Cl)cc2)=Nc2ccc(Cl)cc2C1c1ccccc1` (stereo unspecified) the IC50 was 23 µM and the IC90 was 24.8 µM.
Compound `Cc1ccc2[nH]c(C(=O)NN=C3CCCCC3)c(-c3ccccc3)c2c1` has an IC50 of 33.6 µM and an IC90 of 53.3 µM.
In the case of `COc1cccc(N2CCN(c3ncnc4c3[nH]c3ccccc34)CC2C)c1` (stereo unspecified), the IC50 is reported as 27.1 µM and the IC90 is reported as 42.5 µM.
`COC(=O)c1ccc(NC(=O)CSc2nc3ccc(N4C(=O)C5C6C=CC(C6)C5C4=O)cc3s2)cc1` (stereo unspecified) was tested, and the IC50 was 4.89 µM and the IC90 was 6.03 µM.
With `COc1cc(OC)c(OC)cc1CCC(C)NCCC(c1ccccc1)c1ccccc1` (stereo unspecified) the IC50 was 23.4 µM and the IC90 was 26.7 µM.
`Cc1ccc(-c2noc(C3CCCN(C(=O)c4ccc(C(C)(C)C)cc4)C3)n2)o1` (stereo unspecified) was tested, and the IC50 was 53.9 µM and the IC90 was 82.6 µM.
`O=C(CN1CCCCC1)Nc1nnc(-c2ccc([N+](=O)[O-])cc2)s1` gave an IC50 of 44.9 µM and an IC90 of 69.6 µM.
